The subject of the assay is CFBE41o- DeltaF508-CFTR YFP halide quenching kinetics. The assay can be described thus: PubChem AID 651992. The following applies: at 40 µM (top of the series).

In the case of `COc1ccc(/C=C/C=C2C(=O)NC(=O)NC2=O)cc1`, the YFP fluorescence ratio, lower = correction is 1.

For the origin of these results see PubChem BioAssay AID651992 (The Scripps Research Institute Molecular Screening Center, 2013).
